Measured values reported in PMC9823088, “The oral selective estrogen receptor degrader GDC-0810 (ARN-810) in postmenopausal women with hormone receptor-positive HER2-negative (HR + /HER2 −) advanced/metastatic breast cancer” (Breast Cancer Research and Treatment, 2022).

Test system: ER
Assay: [18F]-fluoroestradiol PET (FES-PET) pharmacodynamic response
Type: in vivo, human
Method: Blood samples were collected for pharmacokinetic assessments. Tumor assessments were performed at screening and every 8 weeks from cycle 1, day 1 (C1D1). Radiographic assessment of objective tumor response or disease progression was based on Response Evaluation Criteria in Solid Tumors (RECIST v1.1). Transvaginal ultrasound scans were performed to monitor endometrial thickness at screening, at every 6 months from C1D1, and at the end of treatment. Imaging with [^18F]-fluoroestradiol positron emission tomography (FES-PET) was performed to quantify ER expression in tumors and to assess for pharmacodynamic response. Further assessment details are provided in Supplementary Methods. […]
Tumor assessments were performed at screening and every 8 weeks from cycle-1, day-1 […]
Imaging with [18F]-fluoroestradiol positron emission tomography
(FES-PET) was performed to quantify ER expression in tumors and to assess for pharmacodynamic response. In phase Ia, FES-PET scans were acquired at screening and on C2D3 at 18-24 hours post the C2D2 dose. Scans were repeated during cycle 3 if the C2D3 scan […]
In phase IIa cohort A1 patients, FES-PET scans were acquired at screening and on C3D3 at 18-24 hours post the C3D2 dose. Scans were repeated at the time of progression if feasible. The mean percent change from baseline in SUVmax (corrected for background activity) for up to five index lesions was calculated for each patient; more details are presented in (1). Optional tumor biopsies were collected at baseline (screening)

CC/C(=C(/c1ccc(/C=C/C(=O)O)cc1)c1ccc2[nH]ncc2c1)c1ccc(F)cc1Cl [GDC-0810]
patients with complete or near-complete reduction in FES uptake (600 mg QD (fasting and non-fasting)): ≥ 80%
response rates by FES-PET (600-mg QD, fasting, and non-fasting, including tumors harboring ESR1 mutations): 80–100%
patients with complete or near complete (> 90%) suppression of FES uptake (all patients who had FES-PET scans): 78%
FES reduction (in vivo): > 90%
patients with complete or near complete (> 90%) suppression of FES uptake (patients with tumors harboring ESR1 mutations): 18 of 26
patients with complete or near complete (> 90%) suppression of FES uptake (phase IIa dose expansion, baseline and C3D3 scans): 7 of 10
patients with a single lesion considered FES-avid (SUVmax corrected > 1.5) (phase Ia dose escalation, C2D3): two
patients with complete or near complete (> 90%) suppression of FES uptake (phase Ia, baseline and C2D3 scans): 24 of 30
